According to patent publication US20080003606A1, “DIAGNOSIS OF TAMOXIFEN SENSITIVITY” (priority 2004, published 2008):

Tested on: ER positive invasive breast cancer
Assay: Randomized trial of 2 years of adjuvant tamoxifen vs no adjuvant treatment, survival analysed by cyclin D1/A2 expression and CCND1 amplification
Format: in vivo, human
Details: for Overall Survival RR / Recurrence Free Survival RR: Cox univariate, ER+, tamoxifen vs control (1.00)
Procedure: During 1984-1991, 564 premenopausal patients or patients under 50 years with stage 11 (pT2 N0 M0, pT1 N1 M0 and pT2, N1 M0) invasive breast cancer were enrolled in a randomized trial of 2 years of adjuvant tamoxifen treatment with a daily dosage of either 40 mg (study center 1) or 20 mg (study center 2) or no adjuvant treatment (detailed in [14]).
All available archived primary tumor specimens were collected (n=500). Areas with invasive cancer were marked on the H&E stained slides and two 0.6 mm tissue cores were taken from each donor block and mounted in a recipient block using an automated arrayer ((ATA-27, Beecher Inc, WI, USA).
For cyclin A2 expression, only the fraction of positively staining nuclei were calculated (405 cases) and subdivided into five groups based on the following score: 0 (0-1%), 1 (2-10%), 2 (11-25%), 3 (26-50%) and 4 (>50%). For cyclin D1, the nuclear fraction and intensity as well as the cytoplasmic staining intensity was evaluated (463 cases). The nuclear fractions were divided into the following five subgroups: 0 (0%), 1 (1-25%), 2 (26-50%), 3 (51-75%) and 4 (>75%). The nuclear and cytoplasmic intensity was evaluated as absent=0, weak=1, intermediate=2 and strong=3. The TMA:s had previously been analyzed immunohistochemically for estrogen- (ER) and progesterone (PR) receptor status (anti-ER Clone 6F11 and anti-PgR Clone 16) using the Ventana Benchmark system (Ventana Medical Systems Inc., AZ, USA). In line with the clinically established cut-off used for hormone receptor assessment, tumors with more than 10% positively staining nuclei were considered positive.
For fluorescence in situ (FISH) analysis of CCND1 gene amplification, two direct-labeled probes were used, LSI cyclin D1 (11q13) SpectrumOrange against CCND1 (11q13) and CEP 11 SpectrumGreen (Vysis Inc., Illinois, USA) against the centromere of chromosome 11. The FISH analysis was performed according to the standard protocol recommended by the manufacturer and according to “LSI® Locus Specific Identifier DNA probes” from Vysis Inc., Illinois. Briefly, tissue sections were de-paraffinized in xylene and alcohol and air-dried. The slides were then microwave-treated in Target Retrieval Solution pH 7.3 (DAKO A/S, Glostrup, Denmark) for 5+5 minutes and treated with 100 μl pepsin (Digest-All 3, Zymed, California, USA) for 8 minutes in 37° C. and washed in water. The de-paraffinized slides were denatured in 70% formamide/2×SSC at 73° C. for 5 minutes followed by dehydration in graded ethanol. A denatured mixture of 1 μl LSI probe, 2 μl pH2O and 7 μl LSI hybridization buffer was added on each slide and incubated at 37° C. overnight. The slides were then washed with 0.4×SSC/0.3% Nonidet P40 at 37±1° C. for 2 minutes followed by a 2×SSC/0.1% NP40 wash at ambient temperature for 1 minute to remove non-specifically bound probe.
For evaluation, the CCND1 gene was considered amplified when the ratio of orange/green was >1. Non-amplified cases were classified as 0, cases with up to 10 copies as 1 and >10 copies as 2.
Baseline prognostic and patient characteristics between the original study group, patients with available FISH data (n=280) and patients without FISH data (n=284) were compared using the chi-square test to exclude the possibility of selection bias. Baseline prognostic and patients characteristics were also compared between amplified and non-amplified cases using the same approach as well as the marker distribution according to trial arm. For evaluation of treatment response, only tumors with >10% ER positivity were included. Kaplan-Meier and log-rank tests and univariate Cox regression analyses were used for recurrence free survival (RFS), breast cancer survival (BCS) and overall survival (OS).

[1] = Multivariate Cox model with A2 NF and interaction variable, adjusted for age, tumor size, NHG, Ki-67 and nodal status
[2] = Multivariate Cox model with CCND1 amplification and interaction variable, adjusted for age, tumor size, NHG, Ki-67 and nodal status
[3] = Multivariate Cox model with D1 NF and interaction variable, adjusted for age, tumor size, NHG, Ki-67 and nodal status
[4] = Multivariate Cox model with D1 NI and interaction variable, adjusted for age, tumor size, NHG, Ki-67 and nodal status
[5] = Multivariate Cox model, adjusted for age, tumor size, NHG, Ki-67 and nodal status

With CC/C(=C(\c1ccccc1)c1ccc(OCCN(C)C)cc1)c1ccccc1 [tamoxifen] the tamoxifen effect (CCND1-amplified tumors without high cyclin D1 protein intensity or >50% cyclin D1 positive cells) was “clear adverse tamoxifen effect”, the “Overall Survival RR” value (CCND1 amplified) was 2.13 and the “Recurrence Free Survival RR” value (CCND1 amplified) was 2.22. The “Overall Survival RR” value (CCND1 not amplified) was 0.43, the “Recurrence Free Survival RR” value (CCND1 not amplified) was 0.39 and the “Overall Survival RR” value (Cyclin A2 nf <10%) was 0.72. For the same molecule, the “Recurrence Free Survival RR” value (Cyclin A2 nf <10%) was 0.51, the “Overall Survival RR” value (Cyclin A2 nf >10%) was 0.92 and the “Recurrence Free Survival RR” value (Cyclin A2 nf >10%) was 0.86. For the same molecule, the “Overall Survival RR” value (Cyclin D1 nf <25%) was 0.65, the “Recurrence Free Survival RR” value (Cyclin D1 nf <25%) was 0.62 and the “Overall Survival RR” value (Cyclin D1 nf >25%) was 0.78. For the same molecule, the “Recurrence Free Survival RR” value (Cyclin D1 nf >25%) was 0.61, the “Overall Survival RR” value (Cyclin D1 ni high) was 0.77 and the “Recurrence Free Survival RR” value (Cyclin D1 ni high) was 0.84. The “Overall Survival RR” value (Cyclin D1 ni low/intermediate) was 0.72, the “Recurrence Free Survival RR” value (Cyclin D1 ni low/intermediate) was 0.59 and the “Overall survival RR, Treatment tamoxifen vs control” value (shortened to “Overall survival RR … vs control”) [1] was 0.64. For the same molecule, the “Recurrence free survival RR, Treatment tamoxifen vs control” value (“Recurrence free survival RR … vs control” below) [1] was 0.46, the “Overall survival RR … vs control” value [2] was 0.41 and the “Recurrence free survival RR … vs control” value [2] was 0.37. The “Overall survival RR … vs control” value [3] was 0.67, the “Recurrence free survival RR … vs control” value [3] was 0.62 and the “Overall survival RR … vs control” value [4] was 0.78. For the same molecule, the “Recurrence free survival RR … vs control” value [4] was 0.62, the “Overall survival RR, Interaction variable tamoxifen × A2 nf” value [5] was 1.40 and the “Overall survival RR, Interaction variable tamoxifen × CCND1” value [5] was 5.85. For the same molecule, the “Overall survival RR, Interaction variable tamoxifen × D1 nf” value [5] was 1.29, the “Overall survival RR, Interaction variable tamoxifen × D1 ni” value [5] was 1.00 and the “Recurrence free survival RR, Interaction variable tamoxifen × A2 nf” value [5] was 1.93. For the same molecule, the “Recurrence free survival RR, Interaction variable tamoxifen × CCND1” value [5] was 6.26, the “Recurrence free survival RR, Interaction variable tamoxifen × D1 nf” value [5] was 0.98 and the “Recurrence free survival RR, Interaction variable tamoxifen × D1 ni” value [5] was 1.27. For the same molecule, the “difference in treatment response, multivariate interaction variable” value (node positive patients, CCND1-amplified tumors) was “more then nine-fold”, the “10 year RFS” value (node positive patients, amplified tumors, treated arm (untreated 68%)) was 13% and the “difference in tamoxifen treatment effect” value (patients with CCND1-amplified tumors, multivariate interaction analyses) was 6-9 fold. For the same molecule, the “10 years RFS” value (patients with amplified tumors, tamoxifen treated arm (untreated 62%)) was 29%, the “10 years OS” value (patients with amplified tumors, tamoxifen treated arm (untreated 74%)) was 56% and the “proportional 10-year recurrence free survival (RFS)” value (patients with non-amplified tumors, treatment arm (control 44%)) was 74%. The “10-year overall survival (OS)” value (patients with non-amplified tumors, treatment arm (control 61%)) was 78%, the tamoxifen response (tumors with >10% positive cyclin A2 nuclei) was “lack of response” and the tamoxifen response (tumors with less than 10% positive cyclin A2 nuclei) was “responded well”. The “tamoxifen response regarding recurrence free survival (RFS)” value (tumors with strong nuclear cyclin D1 staining intensity) was “did not respond”.
